Experimental data taken from patent US20250236608A1, “EGFR INHIBITORS” (Blueprint Medicines Corporation, priority 2022, published 2025).
pIC50: −log10 of the molar value.

Assays:
EGFR L858R = EGFR L858R (Homo sapiens (Human), UniProt P00533, L858R); test: Biochemical EGFR inhibition assay, EGFR L858R; conditions: Caliper mobility shift; 1.0 mM ATP or ATP Km; read-out: Enz EGFR_L858R IC50
EGFR (d746-750) = EGFR (d746-750) (Homo sapiens (Human), UniProt P00533, DEL746-750); test: Biochemical EGFR inhibition assay, EGFR (d746-750); conditions: Caliper mobility shift; 1.0 mM ATP or ATP Km; read-out: Enz EGFR_Exon19-del746-750 IC50
[1] = molecular target: pEGFR (Tyr1068) in PC-9 cells (Ex19Del) (Homo sapiens (Human), UniProt P00533, DEL746-750); test: PC-9 pEGFR AlphaLISA assay; format: cell-based; conditions: 4 hours incubation, p-EGFR (Tyr1068) AlphaLISA, read-out: Ext pEGFR_PC-9 Ex19Del IC50
How it was run: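 Phospho-EGFR (Tyr1068) was quantified by AlphaLISA SureFire Ultra in lysates of PC-9 cells exposed for 4 h to compound (4-fold, 10-point dilutions).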

EGFR (d746-750), sequence (P00533 other isoform, or with tags, fused parts or gaps del 1-694/del 746-750 limits assumed): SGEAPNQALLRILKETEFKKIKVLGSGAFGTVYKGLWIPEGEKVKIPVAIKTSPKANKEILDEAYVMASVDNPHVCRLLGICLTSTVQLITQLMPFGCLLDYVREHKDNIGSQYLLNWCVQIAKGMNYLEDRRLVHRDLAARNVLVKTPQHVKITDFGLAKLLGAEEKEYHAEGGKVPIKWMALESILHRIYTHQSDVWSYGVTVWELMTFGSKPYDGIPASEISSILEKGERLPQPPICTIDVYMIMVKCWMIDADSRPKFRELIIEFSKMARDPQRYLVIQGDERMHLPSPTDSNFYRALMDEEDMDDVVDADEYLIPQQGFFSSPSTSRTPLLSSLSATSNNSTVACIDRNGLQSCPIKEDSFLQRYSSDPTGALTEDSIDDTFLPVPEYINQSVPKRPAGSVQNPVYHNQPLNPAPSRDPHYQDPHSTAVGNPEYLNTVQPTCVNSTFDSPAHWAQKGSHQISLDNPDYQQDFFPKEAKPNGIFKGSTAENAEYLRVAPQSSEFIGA
pEGFR (Tyr1068) in PC-9 cells (Ex19Del), sequence (P00533 other isoform, or with tags, fused parts or gaps del 746-750): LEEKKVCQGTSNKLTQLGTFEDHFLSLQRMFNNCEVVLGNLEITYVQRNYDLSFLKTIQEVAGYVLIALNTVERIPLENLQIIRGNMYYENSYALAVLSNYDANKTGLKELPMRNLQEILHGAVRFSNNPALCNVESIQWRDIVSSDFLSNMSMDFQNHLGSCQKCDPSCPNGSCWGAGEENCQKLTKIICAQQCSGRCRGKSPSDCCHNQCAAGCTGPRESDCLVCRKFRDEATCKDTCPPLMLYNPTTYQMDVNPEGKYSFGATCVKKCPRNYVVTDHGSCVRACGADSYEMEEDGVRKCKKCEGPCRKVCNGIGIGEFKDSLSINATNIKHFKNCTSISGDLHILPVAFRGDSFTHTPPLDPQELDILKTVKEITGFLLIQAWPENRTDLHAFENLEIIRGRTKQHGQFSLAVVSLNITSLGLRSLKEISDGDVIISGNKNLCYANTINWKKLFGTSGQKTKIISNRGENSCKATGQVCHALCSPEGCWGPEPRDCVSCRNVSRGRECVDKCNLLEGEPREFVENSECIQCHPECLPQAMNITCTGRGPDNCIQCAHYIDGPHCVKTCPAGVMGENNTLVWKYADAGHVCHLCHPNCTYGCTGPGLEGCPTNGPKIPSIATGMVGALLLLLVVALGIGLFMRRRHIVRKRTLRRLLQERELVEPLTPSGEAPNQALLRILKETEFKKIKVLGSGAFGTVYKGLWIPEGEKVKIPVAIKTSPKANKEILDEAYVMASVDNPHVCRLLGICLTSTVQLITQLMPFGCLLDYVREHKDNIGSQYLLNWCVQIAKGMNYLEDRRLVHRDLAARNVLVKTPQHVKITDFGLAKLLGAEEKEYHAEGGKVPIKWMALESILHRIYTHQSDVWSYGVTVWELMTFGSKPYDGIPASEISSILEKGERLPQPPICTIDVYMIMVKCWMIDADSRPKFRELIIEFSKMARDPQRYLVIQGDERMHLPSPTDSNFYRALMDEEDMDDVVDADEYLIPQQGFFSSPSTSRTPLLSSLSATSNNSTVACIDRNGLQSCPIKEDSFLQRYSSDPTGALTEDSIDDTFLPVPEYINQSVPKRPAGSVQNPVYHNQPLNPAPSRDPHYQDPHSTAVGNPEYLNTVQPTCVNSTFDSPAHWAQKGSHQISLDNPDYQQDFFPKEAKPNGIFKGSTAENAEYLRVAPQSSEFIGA
EGFR L858R, sequence (P00533 25-1210 L858R): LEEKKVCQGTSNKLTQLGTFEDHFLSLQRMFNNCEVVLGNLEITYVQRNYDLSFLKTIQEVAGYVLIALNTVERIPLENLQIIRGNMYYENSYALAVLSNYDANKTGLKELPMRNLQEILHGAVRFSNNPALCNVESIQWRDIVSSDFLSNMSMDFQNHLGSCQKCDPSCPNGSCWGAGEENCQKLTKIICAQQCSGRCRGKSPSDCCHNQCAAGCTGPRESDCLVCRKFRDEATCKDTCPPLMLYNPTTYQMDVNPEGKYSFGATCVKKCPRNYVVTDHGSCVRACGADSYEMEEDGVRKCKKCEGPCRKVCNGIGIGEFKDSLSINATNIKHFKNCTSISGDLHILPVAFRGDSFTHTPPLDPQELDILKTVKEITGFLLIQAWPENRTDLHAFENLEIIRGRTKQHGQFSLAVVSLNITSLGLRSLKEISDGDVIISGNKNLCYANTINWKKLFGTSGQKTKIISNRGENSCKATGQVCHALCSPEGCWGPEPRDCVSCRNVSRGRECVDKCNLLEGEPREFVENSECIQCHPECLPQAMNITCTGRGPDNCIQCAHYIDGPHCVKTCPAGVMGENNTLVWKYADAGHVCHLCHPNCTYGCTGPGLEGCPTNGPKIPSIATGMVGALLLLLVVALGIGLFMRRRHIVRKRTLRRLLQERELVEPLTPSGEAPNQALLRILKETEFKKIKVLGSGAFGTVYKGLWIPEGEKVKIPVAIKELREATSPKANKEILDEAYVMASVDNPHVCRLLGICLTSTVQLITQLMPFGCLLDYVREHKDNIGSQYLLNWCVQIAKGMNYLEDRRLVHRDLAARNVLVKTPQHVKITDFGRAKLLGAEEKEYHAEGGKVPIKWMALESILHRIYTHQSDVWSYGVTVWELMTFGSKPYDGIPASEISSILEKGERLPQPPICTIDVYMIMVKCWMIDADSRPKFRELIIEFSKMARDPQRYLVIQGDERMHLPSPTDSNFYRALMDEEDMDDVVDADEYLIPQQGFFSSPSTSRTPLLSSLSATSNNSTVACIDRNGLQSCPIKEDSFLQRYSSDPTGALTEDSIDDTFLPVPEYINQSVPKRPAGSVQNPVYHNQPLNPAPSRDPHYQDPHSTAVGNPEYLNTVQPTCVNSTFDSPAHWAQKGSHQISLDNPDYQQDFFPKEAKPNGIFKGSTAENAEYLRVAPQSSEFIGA

SMILES	pIC50 (EGFR L858R)	pIC50 (EGFR (d746-750))	pIC50 [1]
COc1cc2ncnc(-c3cn(C)nc3-c3ccccc3F)c2cc1OC(=O)N1CCN(C)C[C@@H]1C [Example 66, 4-(3-(2-fluorophenyl)-1-methyl-1H-pyrazol-4-yl)-7-methoxyquinazolin-6-yl (S)-2,4-dimethylpiperazine-1-carboxylate]	8.54	8.66	8.28
CCOc1cc2ncnc(-c3cn(CC(F)F)nc3-c3ccccc3)c2cc1CO [Example 123, (4-(1-(2,2-difluoroethyl)-3-phenyl-1H-pyrazol-4-yl)-7-ethoxyquinazolin-6-yl)methanol]	8.80	9.00	8.52
CCOc1cc2ncnc(-c3cn(CC)nc3-c3ccccc3)c2cc1[C@@H](C)O (single isomer, unassigned) [Example 108, (R)-1-(7-ethoxy-4-(1-ethyl-3-phenyl-1H-pyrazol-4-yl)quinazolin-6-yl)ethan-1-ol or (S)-1-(7-ethoxy-4-(1-ethyl-3-phenyl-1H-pyrazol-4-yl)quinazolin-6-yl)ethan-1-ol]	8.89	9.05	8.57
COc1cc2ncnc(-c3c[nH]nc3-c3ccccc3)c2cc1[C@H]1CCCCO1 (single isomer, unassigned) [Example 133, (R)-7-methoxy-4-(3-phenyl-1H-pyrazol-4-yl)-6-(tetrahydro-2H-pyran-2-yl)quinazoline or (S)-7-methoxy-4-(3-phenyl-1H-pyrazol-4-yl)-6-(tetrahydro-2H-pyran-2-yl)quinazoline]	8.96	9.30	8.62
CCOc1cc2ncnc(-c3cn(C4CC4)nc3-c3ccccc3)c2cc1[C@H](C)O (single isomer, unassigned) [Example 112, (S)-1-(4-(1-cyclopropyl-3-phenyl-1H-pyrazol-4-yl)-7-ethoxyquinazolin-6-yl)ethan-1-ol or (R)-1-(4-(1-cyclopropyl-3-phenyl-1H-pyrazol-4-yl)-7-ethoxyquinazolin-6-yl)ethan-1-ol]	8.72	8.92	8.42
COc1cc2ncnc(-c3cn(C)nc3-c3ccccc3)c2cc1C(O)C1CC1 (stereo not drawn) [Example 128, cyclopropyl (7-methoxy-4-(1-methyl-3-phenyl-1H-pyrazol-4-yl)quinazolin-6-yl)methanol]	8.44	8.60	7.90
CCOc1cc2ncnc(-c3cn(C)nc3-c3ccccc3)c2cc1Cn1ncnc1C [Example 134, 7-ethoxy-6-((5-methyl-1H-1,2,4-triazol-1-yl)methyl)-4-(1-methyl-3-phenyl-1H-pyrazol-4-yl)quinazoline]	8.40	8.68	7.94
COc1cc2ncnc(-c3cn(C)nc3-c3ccccc3)c2cc1NC(=O)N1C[C@H](C)N(C)C[C@@H]1C [Example 178, (2S,5S)—N-(7-methoxy-4-(1-methyl-3-phenyl-1H-pyrazol-4-yl)quinazolin-6-yl)-2,4,5-trimethylpiperazine-1-carboxamide]	8.21	8.48	8.27
COc1cc2ncnc(-c3cn(C)nc3-c3ccccc3)c2cc1NC(=O)c1ncccn1 [Example 192, N-(7-methoxy-4-(1-methyl-3-phenyl-1H-pyrazol-4-yl)quinazolin-6-yl)pyrimidine-2-carboxamide]	8.96	9.15	8.80
COc1cc2ncnc(-c3cn(C)nc3-c3ccccc3)c2cc1O[C@@H]1CN(C)C[C@H]1F [Example 7, 6-(((3R,4R)-4-fluoro-1-methylpyrrolidin-3-yl)oxy)-7-methoxy-4-(1-methyl-3-phenyl-1H-pyrazol-4-yl)quinazoline]	8.49	8.80	8.26

The remaining lines, values ahead:

pIC50 (EGFR L858R)	pIC50 (EGFR (d746-750))	pIC50 [1]	SMILES
8.92	9.10	9.10	COc1cc2ncnc(-c3cn(C)nc3-c3ccccc3)c2cc1NC(=O)c1ccn(C(C)C)n1 [Example 205, 1-isopropyl-N-(7-methoxy-4-(1-methyl-3-phenyl-1H-pyrazol-4-yl)quinazolin-6-yl)-1H-pyrazole-3-carboxamide]
8.57	9.10	8.42	COc1cc2ncnc(-c3cn(C)nc3-c3ccccc3)c2nc1NC(=O)c1cccc(F)c1 [Example 313, 3-fluoro-N-(7-methoxy-4-(1-methyl-3-phenyl-1H-pyrazol-4-yl)pyrido[3,2-d]pyrimidin-6-yl)benzamide]
7.82	8.27	8.15	CN(C)CCOc1cc2ncnc(-c3cn(C)nc3-c3ccccc3)c2cc1NC(=O)C12CC(C1)C2 [Example 299, N-(7-(2-(dimethylamino)ethoxy)-4-(1-methyl-3-phenyl-1H-pyrazol-4-yl)quinazolin-6-yl)bicyclo[1.1.1]pentane-1-carboxamide]
8.80	9.05	8.92	COc1cc2ncnc(-c3cn(C)nc3-c3ccccc3)c2nc1NC(=O)C1(C(F)(F)F)CC1 [Example 361, N-(7-methoxy-4-(1-methyl-3-phenyl-1H-pyrazol-4-yl)pyrido[3,2-d]pyrimidin-6-yl)-1-(trifluoromethyl)cyclopropane-1-carboxamide]
8.96	9.22	8.96	CCn1cc(-c2ncnc3cc(OC)c(NC(=O)[C@@]45COC[C@@H]4C5)cc23)c(-c2ccccc2F)n1 (mixture of isomers) [Example 262, (1R,5R)—N-(4-(1-ethyl-3-(2-fluorophenyl)-1H-pyrazol-4-yl)-7-methoxyquinazolin-6-yl)-3-oxabicyclo[3.1.0]hexane-1-carboxamide and (1S,5S)—N-(4-(1-ethyl-3-(2-fluorophenyl)-1H-pyrazol-4-yl)-7-methoxyquinazolin-6-yl)-3-oxabicyclo[3.1.0]hexane-1-carboxamide]
8.62	9.22	8.80	COc1cc2ncnc(-c3cn(C)nc3-c3ccc(F)cc3)c2nc1NC(=O)[C@@]12COC[C@@H]1C2 (single isomer, unassigned) [Example 382, (1R,5R)—N-(4-(3-(4-fluorophenyl)-1-methyl-1H-pyrazol-4-yl)-7-methoxypyrido[3,2-d]pyrimidin-6-yl)-3-oxabicyclo[3.1.0]hexane-1-carboxamide or (1S,5S)—N-(4-(3-(4-fluorophenyl)-1-methyl-1H-pyrazol-4-yl)-7-methoxypyrido[3,2-d]pyrimidin-6-yl)-3-oxabicyclo[3.1.0]hexane-1-carboxamide]
8.24	8.82	8.49	CN1C[C@H]2C[C@@]2(C(=O)Nc2nc3c(-c4cn(C)nc4-c4ccccc4)ncnc3cc2OC2CC2)C1 [Example 460, (1S,5S)—N-[7-cyclopropoxy-4-(1-methyl-3-phenyl-1H-pyrazol-4-yl)pyrido[3,2-d]pyrimidin-6-yl]-3-methyl-3-azabicyclo[3.1.0]hexane-1-carboxamide]
8.64	8.92	8.82	COc1cc2ncnc(-c3cn(C)nc3-c3ccc(F)cc3F)c2nc1NC(=O)[C@]12C[C@H]1CN(C)C2 (single isomer, unassigned) [Example 424, (1R,5R)—N-(4-(3-(2,4-difluorophenyl)-1-methyl-1H-pyrazol-4-yl)-7-methoxypyrido[3,2-d]pyrimidin-6-yl)-3-methyl-3-azabicyclo[3.1.0]hexane-1-carboxamide or (1S,5S)—N-(4-(3-(2,4-difluorophenyl)-1-methyl-1H-pyrazol-4-yl)-7-methoxypyrido[3,2-d]pyrimidin-6-yl)-3-methyl-3-azabicyclo[3.1.0]hexane-1-carboxamide]
9.00	9.15	9.10	COc1cc2ncnc(-c3cn(C)nc3-c3ccccc3)c2cc1NC(=O)c1nc(C)ccc1F [Example 330, 3-fluoro-N-(7-methoxy-4-(1-methyl-3-phenyl-1H-pyrazol-4-yl)quinazolin-6-yl)-6-methylpicolinamide]
8.11	8.05	7.60	Cc1nnc([C@H](C)Oc2nc3c(-c4cn(C)nc4-c4ccccc4)ncnc3cc2OC2CC2)o1 (single isomer, unassigned) [Example 477, 2-[(1R)-1-{[7-cyclopropoxy-4-(1-methyl-3-phenyl-1H-pyrazol-4-yl)pyrido[3,2-d]pyrimidin-6-yl]oxy}ethyl]-5-methyl-1,3,4-oxadiazole or 2-[(1S)-1-{[7-cyclopropoxy-4-(1-methyl-3-phenyl-1H-pyrazol-4-yl)pyrido[3,2-d]pyrimidin-6-yl]oxy}ethyl]-5-methyl-1,3,4-oxadiazole]
7.22	8.13	7.66	CN(C)C12CC(C(=O)Nc3nc4c(-c5cn(C)nc5-c5ccccc5F)ncnc4cc3OC(F)F)(C1)C2 [Example 468, N-[7-(difluoromethoxy)-4-[3-(2-fluorophenyl)-1-methyl-1H-pyrazol-4-yl]pyrido[3,2-d]pyrimidin-6-yl]-3-(dimethylamino) bicyclo[1.1.1]pentane-1-carboxamide]
8.68	8.89	9.05	COc1cc2ncnc(-c3cn(C)nc3-c3ccccc3)c2cc1NC(=O)C1CC(F)(F)C1 [Example 346, 3,3-difluoro-N-(7-methoxy-4-(1-methyl-3-phenyl-1H-pyrazol-4-yl)quinazolin-6-yl)cyclobutane-1-carboxamide]
